These are literature values, as cited in patent US20020146829A1, “Neutral and anionic colloidal particles for gene delivery” (Aventis Pharmaceuticals Products Inc., priority 2000, published 2002).

The target in this series is T1, folate receptor on M109 cells (Mus musculus, UniProt P35846).
T1 construct: endogenous in cells; host or cells: M109 cells
T1 sequence (P35846 25-232): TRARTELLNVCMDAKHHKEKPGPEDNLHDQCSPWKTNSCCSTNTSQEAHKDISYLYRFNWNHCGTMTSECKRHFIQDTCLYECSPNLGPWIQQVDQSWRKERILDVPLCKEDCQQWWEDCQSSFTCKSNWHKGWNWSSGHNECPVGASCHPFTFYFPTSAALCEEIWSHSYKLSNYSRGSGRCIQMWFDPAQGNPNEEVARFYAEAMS

Turning to distearyl-PEG400-Folate [RPR258018], the “binding to folate receptor” value is reported as “specifically bind”.
